From US20200071316A1, “ACTIVATORS OF THE RETINOIC ACID INDUCIBLE GENE "RIG-I" PATHWAY AND METHODS OF USE THEREOF” (Kineta Immuno-Oncology LLC, priority 2018, published 2020) come the findings set out here.

The subject of test [1] is IRF3 signaling pathway (IRF-inducible ISG54 promotor) in THP1-Lucia ISG cells. As to the kind of experiment: THP1-Lucia ISG reporter assay: induction of IRF3-dependent luciferase activity. The conditions noted are these: Homo sapiens, PMA-differentiated cells, 18 h after stimulation, read-out: THP1 ISG: fold increase of IRF3-dependent luciferase activity over background; for fold induction at 10 µM: 10 μM compound; for fold induction at 5 µM: 5 μM compound (**). Type of test: cell-based. The method, boiled down:
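PMA-differentiated (100 ng/ml) reporter cells, parental and IRF3−/−, stimulated with compounds at 5–20 μM (mostly 10 μM). Secreted luciferase measured 18 h later. Scored as fold increase over untreated background in bands from "−" (<2.4-fold) to "+++++" (≥40-fold).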
(In general: In a reporter assay the amount or activity of a reporter protein is the signal.)

Test [2] relates to THP1-Lucia ISG IRF3 −/− cells. The experiment in a line: IRF3-deficient THP1-Lucia ISG IRF3 −/− reporter assay (counter-screen). Type of test: cell-based. The note with it: Homo sapiens, 18 h after stimulation, read-out: THP1 ISG IRF3 −/−: fold increase of luciferase activity over background; for fold induction at 10 µM: 10 μM compound; for fold induction at 5 µM: 5 μM compound (**). The method, boiled down: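 PMA-differentiated (100 ng/ml) reporter cells carrying ISRE/ISG54 minimal promoter-driven secreted luciferase were stimulated with compounds at 5–20 μM (mostly 10 μM). Luciferase measured 18 h later and expressed as fold increase over untreated background, binned from "−" (<2.4-fold) to "+++++" (≥40-fold).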

In test [3] the test system is RIG-I deficient CT26 RIG-1−/− cells. The experiment in a line: CXCL10 secretion in RIG-I deficient CT26 RIG-1−/− cells (ELISA). In kind it is cell-based, murine. The note with it: 24 h. The method, boiled down:
(§1)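 Murine CT26 colon carcinoma cells, and CRISPR-generated RIG-I knockout CT26 cells, were seeded at 1×10^4 cells/well and grown 24 h at 37 °C, 5% CO2, then treated with compounds at 5 to 20 μM. CXCL10 in supernatants was measured by ELISA 24 h after stimulation.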

Test [4] has as its system CXCL10 secretion by CT26 cells. As to the kind of experiment: RIG-I dependent CXCL10 secretion by CT26 colon carcinoma cells (ELISA). Type of test: cell-based, murine. The conditions noted are these: 24 h. The method, boiled down:
as §1

Marks after values point to notes of the source that are not given here.

As to `O=C(Nc1cc2ccc(S(=O)(=O)N3CCCC3)cc2s1)c1cc2ccsc2cc1OCCCCN1CCOCC1` [Example 72, 6-[4-(morpholin-4-yl)butoxy]-N-[6-(pyrrolidine-1-sulfonyl)-1-benzothiophen-2-yl]-1-benzothiophene-5-carboxamide], the fold induction at 10 µM was 20 to 39 in test [1] and below 2.4 in test [2]. Further, the “CXCL10 secretion by CT26 RIG-I −/− cells” value in test [3] (10 μM compound) is reported as “− (“−” indicates less than 100 pg/mL)”. Moreover, the “CXCL10 secretion by CT26 cells” value in test [4] (10 μM compound) is “++++ (“++++” indicates 800 to 1599 pg/mL)”.

Regarding `O=C(Nc1cc2ccc(S(=O)(=O)N3CCCC3)cc2s1)c1ccc(-c2ccccc2)cc1` [Example 81, N-[6-(pyrrolidine-1-sulfonyl)-1-benzothiophen-2-yl]-[1,1′-biphenyl]-4-carboxamide], the results for the fold induction at 10 µM in test [1] and in test [2] were 20 to 39 and below 2.4, respectively. In addition, the “CXCL10 secretion by CT26 RIG-I −/− cells” value in test [3] (10 μM compound) is reported as “− (“−” indicates less than 100 pg/mL)”. The “CXCL10 secretion by CT26 cells” value in test [4] (10 μM compound) is given as “++++ (“++++” indicates 800 to 1599 pg/mL)”.

`O=C(Nc1nc2ccc(S(=O)(=O)N3CC[C@@H](O)C3)cc2s1)c1cc2ccccc2cc1OCCCCN1CCOCC1` [Example 78, N-(6-{[(3R)-3-hydroxypyrrolidin-1-yl]sulfonyl}-1,3-benzothiazol-2-yl)-3-[4-(morpholin-4-yl)butoxy]naphthalene-2-carboxamide]: in test [1], the fold induction at 10 µM is at least 40. In test [2], the fold induction at 5 µM is below 2.4. For the same compound, the “CXCL10 secretion by CT26 RIG-I −/− cells” value in test [3] (10 μM compound) was “− (“−” indicates less than 100 pg/mL)”. Moreover, the “CXCL10 secretion by CT26 cells” value in test [4] (10 μM compound) was “+++++ (“+++++” indicates greater than or equal to 1600 pg/ml)”.

In the case of `N#Cc1ccc2nc(NC(=O)c3cc4ccccc4cc3OCCN3CCOCC3)sc2c1` [Example 24, N-(6-cyano-1,3-benzothiazol-2-yl)-3-[2-(morpholin-4-yl)ethoxy]naphthalene-2-carboxamide], the fold induction at 10 µM in test [1] is 5 to 9.9; in test [2] it was below 2.4. The “CXCL10 secretion by CT26 RIG-I −/− cells” value in test [3] (10 μM compound) is “− (“−” indicates less than 100 pg/mL)”. In addition, the “CXCL10 secretion by CT26 cells” value in test [4] (10 μM compound) is “− (“−” indicates less than 100 pg/mL)”.

As for `O=C(Nc1nc2ccc(S(=O)(=O)N3CCOCC3)cc2s1)c1cc2ccccc2cc1OCCCCN1CCOCC1` [Example 17, 3-[4-(morpholin-4-yl)butoxy]-N-[6-(morpholine-4-sulfonyl)-1,3-benzothiazol-2-yl]naphthalene-2-carboxamide], the fold induction at 10 µM in test [1] was 10 to 19; in test [2] it was below 2.4. Besides, the “CXCL10 secretion by CT26 RIG-I −/− cells” value in test [3] (10 μM compound) was “− (“−” indicates less than 100 pg/mL)”. Further, the “CXCL10 secretion by CT26 cells” value in test [4] (10 μM compound) was “+++ (“+++” indicates 400-799 pg/mL)”.

Consider `O=C(Nc1nc2ccc(S(=O)(=O)N3CCCC3)cc2s1)c1cc2c(cc1OCCCCN1CCOCC1)OCO2` [Example 43, 6-[4-(morpholin-4-yl)butoxy]-N-[6-(pyrrolidine-1-sulfonyl)-1,3-benzothiazol-2-yl]-2H-1,3-benzodioxole-5-carboxamide], for which the values for the fold induction at 10 µM in test [1] and in test [2] were 5 to 9.9 and below 2.4, respectively. Moreover, the “CXCL10 secretion by CT26 RIG-I −/− cells” value in test [3] (10 μM compound) is “− (“−” indicates less than 100 pg/mL)”. The “CXCL10 secretion by CT26 cells” value in test [4] (10 μM compound) is reported as “++++ (“++++” indicates 800 to 1599 pg/mL)”.

As to `COC(=O)c1ccc2nc(NC(=O)c3ccc4ccccc4c3)sc2c1` [Example 2, methyl 2-(naphthalene-2-amido)-1,3-benzothiazole-6-carboxylate], the fold induction at 10 µM in test [1] was at least 40; in test [2] it was below 2.4. Besides, the “CXCL10 secretion by CT26 RIG-I −/− cells” value in test [3] (10 μM compound) was “− (“−” indicates less than 100 pg/mL)”. Also, the “CXCL10 secretion by CT26 cells” value in test [4] (10 μM compound) is given as “++++ (“++++” indicates 800 to 1599 pg/mL)”.

Consider `O=C(Nc1nc2ccc(S(=O)(=O)N3CCCC3)cc2s1)c1cc2c(cc1OCCN1CCOCC1)OCO2` [Example 40, 6-[2-(morpholin-4-yl)ethoxy]-N-[6-(pyrrolidine-1-sulfonyl)-1,3-benzothiazol-2-yl]-2H-1,3-benzodioxole-5-carboxamide], for which the fold induction at 20 µM in test [1] (20 μM compound (*)) was 2.4 to 4.9; in test [2] (20 μM compound (*)), below 2.4. Also, the “CXCL10 secretion by CT26 RIG-I −/− cells” value in test [3] (5 μM compound (**)) is reported as “−** (“−” indicates less than 100 pg/mL)”. In addition, the “CXCL10 secretion by CT26 cells” value in test [4] (5 μM compound (**)) was “++** (“++” indicates 200-399 pg/mL)”.

`CS(=O)(=O)Nc1ccc2nc(NC(=O)c3cc4ccccc4cc3OCCCCN3CCOCC3)sc2c1` [Example 27, N-(6-methanesulfonamido-1,3-benzothiazol-2-yl)-3-[4-(morpholin-4-yl)butoxy]naphthalene-2-carboxamide]: the figures for the fold induction at 10 µM in test [1] and in test [2] were 20 to 39 and below 2.4, respectively. In addition, the “CXCL10 secretion by CT26 RIG-I −/− cells” value in test [3] (10 μM compound) was “− (“−” indicates less than 100 pg/mL)”. Besides, the “CXCL10 secretion by CT26 cells” value in test [4] (10 μM compound) is listed as “+++ (“+++” indicates 400-799 pg/mL)”.

Turning to `CS(=O)(=O)Nc1ccc2nc(NC(=O)c3ccc4ccccc4c3)sc2c1` [Example 7, N-(6-methanesulfonamido-1,3-benzothiazol-2-yl)naphthalene-2-carboxamide], the fold induction at 10 µM in test [1] is 20 to 39; in test [2] it was below 2.4. For the same compound, in test [3] (10 μM compound), the “CXCL10 secretion by CT26 RIG-I −/− cells” value was “− (“−” indicates less than 100 pg/mL)”. Further, in test [4] (10 μM compound), the “CXCL10 secretion by CT26 cells” value was “++ (“++” indicates 200-399 pg/mL)”.

In the case of `O=C(Nc1nc2cccc(C(F)(F)F)c2s1)c1ccc2ccccc2c1` [Example 11, N-[7-(trifluoromethyl)-1,3-benzothiazol-2-yl]naphthalene-2-carboxamide], the results for the fold induction at 10 µM in test [1] and in test [2] were 10 to 19 and below 2.4, respectively. The “CXCL10 secretion by CT26 RIG-I −/− cells” value in test [3] (10 μM compound) is listed as “− (“−” indicates less than 100 pg/mL)”. Moreover, in test [4] (10 μM compound), the “CXCL10 secretion by CT26 cells” value is reported as “++ (“++” indicates 200-399 pg/mL)”.

Turning to `O=C(Nc1nc2ccc(NC(=O)C3CCCCC3)cc2s1)c1cc2ccccc2cc1OCCCCN1CCOCC1` [Example 22, N-(6-cyclohexaneamido-1,3-benzothiazol-2-yl)-3-[4-(morpholin-4-yl)butoxy]naphthalene-2-carboxamide], the fold induction at 5 µM in test [1] was 2.4 to 4.9; in test [2], below 2.4. In addition, in test [3] (5 μM compound (**)), the “CXCL10 secretion by CT26 RIG-I −/− cells” value is “−** (“−” indicates less than 100 pg/mL)”. For the same compound, in test [4] (5 μM compound (**)), the “CXCL10 secretion by CT26 cells” value was “+** (“+” indicates 100-199 pg/mL)”.

Consider `O=C(Nc1nc2ccc([N+](=O)[O-])cc2s1)c1cc2ccccc2cc1OCCCCN1CCOCC1` [Example 23, 3-[4-(morpholin-4-yl)butoxy]-N-(6-nitro-1,3-benzothiazol-2-yl)naphthalene-2-carboxamide], for which the results for the fold induction at 5 µM in test [1] and in test [2] were 5 to 9.9 and below 2.4, respectively. The “CXCL10 secretion by CT26 RIG-I −/− cells” value in test [3] (5 μM compound (**)) was “−** (“−” indicates less than 100 pg/mL)”. For the same compound, the “CXCL10 secretion by CT26 cells” value in test [4] (5 μM compound (**)) is given as “++++** (“++++” indicates 800 to 1599 pg/mL)”.

As for `O=C(Nc1nc2ccc(NC(=O)C3CCCCC3)cc2s1)c1ccc2ccccc2c1` [Example 8, N-(6-cyclohexaneamido-1,3-benzothiazol-2-yl)naphthalene-2-carboxamide], the fold induction at 10 µM is 10 to 19 in test [1] and below 2.4 in test [2]. Besides, the “CXCL10 secretion by CT26 RIG-I −/− cells” value in test [3] (10 μM compound) is reported as “− (“−” indicates less than 100 pg/mL)”. The “CXCL10 secretion by CT26 cells” value in test [4] (10 μM compound) is listed as “++++ (“++++” indicates 800 to 1599 pg/mL)”.
